From patent US11478533B2, “Semaglutide for use in medicine” (Novo Nordisk A/S, priority 2020, dated 2022)

Assays:
subjects with NASH = assay: Clinical Trial A: enhanced liver fibrosis (ELF) score; assay type: in vivo, human; settings: week 72; for Change in enhanced liver fibrosis (ELF) at end of trial compared to baseline relative to placebo, ETD: all randomised subjects, estimated treatment difference vs placebo (ANCOVA)
Source text: In some embodiments the method of the invention reduces enhanced liver fibrosis (ELF). In some embodiments the term “enhanced liver fibrosis” (also referred to as ELF) as used herein refers to a score derived as a log-linear combination based on blood sample levels of hyaluronic acid (HA), amino-terminal propeptide of type III collagen (P3NP), and tissue inhibitor of metalloproteinase 1 (TIMP1) according to Formula (I): ELF=−7.412+0.681×ln(cHA)+0.775×ln(cP3NP)+0.494×ln(cTIMP1) (I) where cHA is the serum concentration of HA in ng/ml, cP3NP is the serum concentration of P3NP in ng/ml, and cTIMP1 is the serum concentration of TIMP1 in ng/ml.
A 72-week, randomised, double-blind, placebo-controlled, six-armed, parallel group, multicentre, multi-national phase 2 trial comparing once daily (OD) administration of semaglutide in three different doses (0.1 mg, 0.2 mg and 0.4 mg) with placebo in subjects with NASH was carried out. A total of 319 subjects received trial product, 302 subjects completed the trial, and 277 subjects had liver biopsy at trial week 72. Subjects received once daily (a) semaglutide of (i) 0.05 mg for 4 weeks and 0.1 mg for the remaining trial period, (ii) 0.05 mg for 4 weeks, 0.1 mg for 4 weeks, and 0.2 mg for the remaining trial period, (iii) 0.05 mg for 4 weeks, 0.1 mg for 4 weeks, 0.2 mg for 4 weeks, 0.3 mg for 4 weeks, and 0.4 mg for the remaining trial period, or (b) placebo in injection volumes corresponding to (i), (ii) or (iii). Administration was performed via subcutaneous injection using (a) an aqueous solution comprising 1.0 mg/ml semaglutide, 1.42 mg/ml disodium hydrogen phosphate dihydrate, 14.0 mg/ml propylene glycol, 5.50 mg/ml phenol at pH 7.4, or (b) a placebo solution comprising the same ingredients as (a) except no semaglutide. Inclusion criteria for subjects in the trial comprised (i) histologic evidence of NASH based on evaluation of a liver biopsy obtained up to 21 weeks before screening, (ii) a histological NAS >4 with a score of 1 or more in each sub-component of the score, and (iii) liver fibrosis stage 1, 2 or 3 according to the NASH-CRN. Screening was carried out prior to baseline in order to make assessments used to determine subject eligibility. Exclusion criteria for subjects in the trial comprised (i) documented causes of chronic liver disease other than NASH and (ii) no substantial alcohol consumption, defined in the trial as no more than 20 g ethanol per day for women or no more than 30 g ethanol per day for men. Baseline characteristics for all randomised subjects in the trial were as shown in Table A. The term “baseline” as used herein refers to the beginning of the trial prior to administration of semaglutide or placebo. […] The fibrosis stage was determined according to the Kleiner fibrosis classification.

[1] = test system: subjects with NAFLD and increased liver stiffness; assay: Clinical Trial B: liver steatosis by MRI-PDFF; assay type: in vivo, human; settings: 0.4 mg OD s.c.
Experimental: A randomised, double-blind, placebo-controlled, parallel group, multi-centre phase 1 trial was carried out to investigate the effect of 0.4 mg semaglutide once-daily (OD) in 67 subjects with NAFLD and increased liver stiffness. Subjects received once daily either (i) semaglutide of 0.05 mg for 4 weeks, 0.1 mg for 4 weeks, 0.2 mg for 4 weeks, 0.3 mg for 4 weeks, and then 0.4 mg for the remaining trial period, or (ii) placebo in injection volumes corresponding to (i). Administration was performed via subcutaneous injection using (a) an aqueous solution comprising 1.0 mg/ml semaglutide, 1.42 mg/ml disodium hydrogen phosphate dihydrate, 14.0 mg/ml propylene glycol, 5.50 mg/ml phenol at pH 7.4, or (b) a placebo solution comprising the same ingredients as (a) except no semaglutide. Inclusion criteria for subjects in the trial comprised (i) liver steatosis of at least 10% measured by magnetic resonance imaging proton density fat fraction (MRI-PDFF) at screening, (ii) liver stiffness between 2.50 and 4.63 kPa (both inclusive) measured by magnetic resonance elastography at screening, (iii) BMI between 25.0 and 40.0 kg/m^2 (both inclusive) at screening, (iv) liver stiffness >6.50 kPa measured via Fibroscan® (manufactured by Echosens, Paris, France) at screening, and (v) for subjects with type 2 diabetes mellitus only, diagnosis of type 2 diabetes mellitus was at least 180 days prior to screening and with HbA1c of no more than 9.5% at screening. Screening was carried out prior to baseline in order to make assessments used to determine subject eligibility. Exclusion criteria for subjects in the trial comprised (i) documented causes of chronic liver disease other than NAFLD including NASH and (ii) no substantial alcohol consumption, defined in the trial as no more than 20 g ethanol per day for women or no more than 30 g ethanol per day for men. Baseline characteristics for all randomised subjects in the trial were shown in Table B. MRI-PDFF is a determination of the percentage of fat in the entire liver and the method is described in e.g. Caussy et al. Hepatology. 2018 August; 68(2):763-772.

N-epsilon26-[2-(2-{2-[2-(2-{2-[(S)-4-Carboxy-4-(17-carboxyheptadecanoyl-amino)butyrylamino]ethoxy}ethoxy)acetylamino]ethoxy}ethoxy)acetyl] [Aib8, Arg34]GLP-1-(7-37) [Semaglutide]
Change in enhanced liver fibrosis (ELF) at end of trial compared to baseline relative to placebo, ETD (subjects with NASH; 0.1 mg OD s.c.): −0.35 [−0.57; | Change in enhanced liver fibrosis (ELF) at end of trial compared to baseline relative to placebo, ETD (subjects with NASH; 0.2 mg OD s.c.): −0.40 [−0.62; | Change in enhanced liver fibrosis (ELF) at end of trial compared to baseline relative to placebo, ETD (subjects with NASH; 0.4 mg OD s.c.): −0.57 [−0.79; | Reduction of ELF compared to placebo (in words) (subjects with NASH; all tested semaglutide dosages): reduced ELF significantly more compared to placebo | Reduction of liver steatosis compared to placebo ([1]; 24 weeks of trial): 30% | Subjects with at least 30% reduction in liver steatosis ([1]; 24 weeks of trial): about 65% | Reduction of liver steatosis compared to placebo ([1]; 48 and 72 weeks of trial): about 50% | Subjects with at least 30% reduction in liver steatosis ([1]; 48 and 72 weeks of trial): 74-77% | Change in liver steatosis by MRI-PDFF compared to baseline, Estimated mean ratio to baseline ([1]; trial week 24): 0.64 | Proportion of subjects with 30% or greater reduction in liver steatosis by MRI-PDFF compared to baseline ([1]; trial week 24): 64.7 (p = 0.0006) % | Change in liver steatosis by MRI-PDFF compared to baseline, Estimated mean ratio to baseline ([1]; trial week 48): 0.42 | Proportion of subjects with 30% or greater reduction in liver steatosis by MRI-PDFF compared to baseline ([1]; trial week 48): 76.5 (p = 0.0001) % | Change in liver steatosis by MRI-PDFF compared to baseline, Estimated mean ratio to baseline ([1]; trial week 72): 0.42 | Proportion of subjects with 30% or greater reduction in liver steatosis by MRI-PDFF compared to baseline ([1]; trial week 72): 73.5 (p = 0.0006) %
